In US9200051B2, “Peptide compound” (TAKEDA PHARMACEUTICAL COMPANY LIMITED, priority 2013, dated 2015):
Square brackets hold non-standard residues; d marks the D form. Peptide text beside a SMILES is read from it. αMeF = C[C@](N)(Cc1ccccc1)C(=O)O; 4Pal = N[C@@H](Cc1ccncc1)C(=O)O; Cha = N[C@@H](CC1CCCCC1)C(=O)O; Aib = CC(C)(N)C(=O)O

Legend:
Type in all cases: cell-based
human GIPR = molecular target: T1, human GIPR (Homo sapiens, UniProt P48546); test: Agonist activity against human GIPR, CRE-luciferase reporter assay (rise in intracellular cAMP) in hGIPR/CRE-LUC/CHO-K1 cells
T1 construct: expressed in transfected cells; host or cells: CHO-K1 (CRE-LUC/CHO-K1), plasmid hGIPR/pMSRα-neo
T1 sequence (P48546 22-466): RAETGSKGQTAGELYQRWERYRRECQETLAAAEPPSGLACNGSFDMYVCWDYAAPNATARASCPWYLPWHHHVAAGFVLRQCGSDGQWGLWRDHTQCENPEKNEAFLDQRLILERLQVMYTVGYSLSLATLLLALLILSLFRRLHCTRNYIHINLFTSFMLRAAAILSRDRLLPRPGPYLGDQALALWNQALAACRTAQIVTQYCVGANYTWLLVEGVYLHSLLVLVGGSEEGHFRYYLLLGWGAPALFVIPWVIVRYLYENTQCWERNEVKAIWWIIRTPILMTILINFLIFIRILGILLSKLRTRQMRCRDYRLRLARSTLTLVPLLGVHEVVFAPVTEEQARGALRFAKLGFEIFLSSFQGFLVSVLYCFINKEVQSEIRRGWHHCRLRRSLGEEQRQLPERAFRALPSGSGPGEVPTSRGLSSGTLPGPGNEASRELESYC
Text: (§1) Evaluation of agonist activity against human GIPR, human GLP-1R and human glucagon R using rise in intracellular cAMP concentration as index
The human GIPR gene having a sequence identical to the sequence of GenBank Accession No. U39231 was cloned into pMSRα-neo vector to prepare hGIPR/pMSRα-neo.
(§2) The luciferase reporter gene having an upstream cAMP response sequence was introduced to CHO-K1 cells to construct CRE-LUC/CHO-K1 cells.
The plasmid hGIPR/pMSRα-neo obtained in (1) was introduced to the CRE-LUC/CHO-K1 cells obtained in (2) to obtain transformants. Next, a cell line induced to express luciferase, i.e., hGIPR/CRE-LUC/CHO-K1 cells, were selected from the obtained transformants by the addition of GIP.
(§3) The hGIPR/CRE-LUC/CHO-K1 cells were inoculated at a cell density of 25 μL/well (5×10^4 cells/well) to a 384-well white plate (Corning), and cultured overnight in Ham F12 medium containing 10% fetal bovine serum, 100 U/mL penicillin and 100 μg/mL streptomycin in a CO2 incubator of 37° C. A medium containing a test compound was added at a concentration of 5 μL/well to the cells, and the resultant cells were incubated for 4 hours in a CO2 incubator of 37° C. to give the final concentration of 1 μM. PicaGene LT7.5 (Toyo Ink Co., Ltd.) was added thereto at a concentration of 30 μL/well, and the mixture was shaken with light shielded. After 30 minutes, the luciferase activity was measured using a plate reader Envision (PerkinElmer). The luciferase activity in the presence of 10 nM GIP was defined as 100%, and the luciferase activity from the addition of DMSO instead of the test compound was defined as 0%. The GIPR agonist activity was calculated with a rise in intracellular cAMP concentration as an index.

human GLP-1R = molecular target: T2, human GLP-1R (Homo sapiens, UniProt P43220); test: Agonist activity against human GLP-1R, CRE-luciferase reporter assay in hGLP-1R/CRE-luc/CHO-K1 cells
T2 construct: expressed in transfected cells; host or cells: CHO-K1, plasmids hGLP-1/pIRESneo3 and Cre-luc(Zeo)
Text: as §1
Four copies of the cAMP response sequence and the Zeocin resistance gene were introduced to pGL3(R2.2)-Basic Vector (Promega) to construct Cre-luc(Zeo) reporter plasmid.
The human GLP-1R gene having a sequence identical to the sequence of GenBank Accession No. NM_002062 was cloned into pIRESneo3 vector to prepare hGLP-1/pIRESneo3.
The Cre-luc(Zeo) obtained in (3) and the plasmid hGLP-1/pIRESneo3 obtained in (5) were introduced to CHO-K1 cells to obtain transformants. Next, a cell line induced to express luciferase, i.e., hGLP-1R/CRE-luc/CHO-K1 cells, were selected from the obtained transformants by the addition of GLP-1.
as §3
The GLP-1R agonist activity was assayed in the same way as above using the hGLP-1R/CRE-luc/CHO-K1 cells. The luciferase activity in the presence of 10 nM GLP-1 was defined as 100%, and the luciferase activity from the addition of DMSO instead of the test compound was defined as 0%. The GLP-1R agonist activity was calculated with a rise in intracellular cAMP concentration as an index.

human glucagon R = molecular target: T3, human glucagon R (Homo sapiens, UniProt P47871); test: Agonist activity against human glucagon R, CRE-luciferase reporter assay in hGlucagonR/CRE-LUC/CHO-K1 cells
T3 construct: expressed in transfected cells; host or cells: CHO-K1 (CRE-LUC/CHO-K1), plasmid hGlucagonR/pMSRα-neo
Text: as §1, §2
The human glucagon R gene having a sequence identical to the sequence of GenBank Accession No. NM_000160 was cloned into pMSRα-neo vector to prepare hGlucagonR/pMSRα-neo.
The plasmid hGlucagonR/pMSRα-neo obtained in (7) was introduced to the CRE-LUC/CHO-K1 cells obtained in (2) to obtain transformants. Next, a cell line induced to express luciferase, i.e., hGlucagonR/CRE-LUC/CHO-K1 cells, were selected from the obtained transformants by the addition of glucagon.
as §3
The glucagon R agonist activity was assayed in the same way as above using the hGlucagonR/CRE-LUC/CHO-K1 cells. The luciferase activity in the presence of 10 nM glucagon was defined as 100%, and the luciferase activity from the addition of DMSO instead of the test compound was defined as 0%. The glucagon agonist activity was calculated with a rise in intracellular cAMP concentration as an index.

T2 sequence (P43220 24-463): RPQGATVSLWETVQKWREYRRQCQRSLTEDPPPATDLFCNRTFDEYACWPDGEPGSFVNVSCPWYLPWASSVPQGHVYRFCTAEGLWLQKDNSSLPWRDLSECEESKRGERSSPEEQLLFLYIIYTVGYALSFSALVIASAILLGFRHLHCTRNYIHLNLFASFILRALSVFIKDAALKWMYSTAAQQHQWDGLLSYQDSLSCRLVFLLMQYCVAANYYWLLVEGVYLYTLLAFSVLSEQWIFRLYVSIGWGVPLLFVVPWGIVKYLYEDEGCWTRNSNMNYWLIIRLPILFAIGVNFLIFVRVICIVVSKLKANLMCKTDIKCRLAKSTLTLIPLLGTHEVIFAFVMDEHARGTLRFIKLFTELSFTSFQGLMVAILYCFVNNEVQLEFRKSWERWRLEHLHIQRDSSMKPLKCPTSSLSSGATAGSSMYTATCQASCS
T3 sequence (P47871 26-477): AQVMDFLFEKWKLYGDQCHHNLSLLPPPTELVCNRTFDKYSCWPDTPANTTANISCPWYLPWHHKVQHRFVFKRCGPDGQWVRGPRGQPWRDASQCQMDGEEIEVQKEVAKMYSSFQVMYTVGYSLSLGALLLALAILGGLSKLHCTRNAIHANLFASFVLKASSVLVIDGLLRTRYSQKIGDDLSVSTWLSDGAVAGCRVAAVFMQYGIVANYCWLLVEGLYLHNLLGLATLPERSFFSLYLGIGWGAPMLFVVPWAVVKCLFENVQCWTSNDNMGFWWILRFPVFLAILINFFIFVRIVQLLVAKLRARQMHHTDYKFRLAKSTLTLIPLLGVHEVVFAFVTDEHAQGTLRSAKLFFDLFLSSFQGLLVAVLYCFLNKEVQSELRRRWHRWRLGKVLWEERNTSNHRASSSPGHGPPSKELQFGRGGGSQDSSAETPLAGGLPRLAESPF

With `CC(C)C[C@H](NC(=O)[C@H](CC(C)C)NC(=O)[C@H](Cc1c[nH]c2ccccc12)NC(=O)[C@H](CCCCN)NC(=O)[C@@H](NC(=O)[C@H](Cc1ccccc1)NC(=O)[C@H](CCC(=O)O)NC(=O)[C@H](C)NC(=O)[C@H](CCC(N)=O)NC(=O)[C@H](C)NC(=O)[C@H](CCC(N)=O)NC(=O)[C@H](CCCCN)NC(=O)[C@H](CC(=O)O)NC(=O)[C@H](CC(C)C)NC(=O)C(C)(C)NC(=O)[C@H](Cc1ccccc1)NC(=O)C(C)(C)NC(=O)[C@H](Cc1ccc(O)cc1)NC(=O)[C@H](CC(=O)O)NC(=O)[C@H](CO)NC(=O)[C@@H](NC(=O)[C@](C)(Cc1ccccc1)NC(=O)[C@@H](NC(=O)CNC(=O)[C@H](CCC(=O)O)NC(=O)C(C)(C)NC(=O)[C@@H](N)Cc1ccc(O)cc1)[C@@H](C)O)[C@@H](C)O)C(C)C)C(=O)N[C@@H](CCCCN)C(=O)NCC(=O)NCC(=O)N1CCC[C@H]1C(=O)N[C@@H](CO)C(=O)N[C@@H](CO)C(=O)NCC(=O)N[C@@H](C)C(=O)N1CCC[C@H]1C(=O)N1CCC[C@H]1C(=O)N1CCC[C@H]1C(=O)N[C@@H](CO)C(=O)N[C@@H](CCCCN)C(N)=O` [Example 11] (H-Y[Aib]EGT[αMeF]TSDY[Aib]F[Aib]LDKQAQAEFVKWLLKGGPSSGAPPPSK-NH2) the EC50 (human GIPR) was 0.015 nM, the EC50 (human GLP-1R) was 0.022 nM and the EC50 (human glucagon R) was > 1000 nM.
With `CC(C)C[C@H](NC(=O)[C@H](CC(C)C)NC(=O)[C@H](Cc1c[nH]c2ccccc12)NC(=O)[C@H](CCCCN)NC(=O)[C@@H](NC(=O)[C@H](Cc1ccccc1)NC(=O)[C@H](CCC(=O)O)NC(=O)[C@H](C)NC(=O)[C@H](CCC(N)=O)NC(=O)[C@H](C)NC(=O)[C@H](CCC(N)=O)NC(=O)[C@H](CCCCN)NC(=O)[C@H](CC(=O)O)NC(=O)[C@H](CC(C)C)NC(=O)C(C)(C)NC(=O)[C@H](Cc1ccncc1)NC(=O)C(C)(C)NC(=O)[C@H](Cc1ccc(O)cc1)NC(=O)[C@H](CC(=O)O)NC(=O)[C@H](CO)NC(=O)[C@@H](NC(=O)[C@](C)(Cc1ccccc1)NC(=O)[C@@H](NC(=O)CNC(=O)[C@H](CCC(=O)O)NC(=O)C(C)(C)NC(=O)[C@@H](N)Cc1ccc(O)cc1)[C@@H](C)O)[C@@H](C)O)C(C)C)C(=O)N[C@@H](CCCCN)C(=O)NCC(=O)NCC(=O)N1CCC[C@H]1C(=O)N[C@@H](CO)C(=O)N[C@@H](CO)C(=O)NCC(=O)N[C@@H](C)C(=O)N1CCC[C@H]1C(=O)N1CCC[C@H]1C(=O)N1CCC[C@H]1C(=O)N[C@@H](CO)C(=O)N[C@@H](CCCCN)C(N)=O` [Example 12] (H-Y[Aib]EGT[αMeF]TSDY[Aib][4Pal][Aib]LDKQAQAEFVKWLLKGGPSSGAPPPSK-NH2) the EC50 (human GIPR) was 0.0072 nM, the EC50 (human GLP-1R) was 0.014 nM and the EC50 (human glucagon R) was > 1000 nM.
In the case of `CC[C@H](C)[C@H](NC(=O)C(C)(C)NC(=O)[C@H](Cc1ccc(O)cc1)NC(=O)[C@H](CC(=O)O)NC(=O)[C@H](CO)NC(=O)[C@@H](NC(=O)[C@](C)(Cc1ccccc1)NC(=O)[C@@H](NC(=O)CNC(=O)[C@H](CCC(=O)O)NC(=O)C(C)(C)NC(=O)[C@@H](N)Cc1ccc(O)cc1)[C@@H](C)O)[C@@H](C)O)C(=O)N[C@@](C)(Cc1ccccc1)C(=O)N[C@@H](CC(C)C)C(=O)N[C@@H](CC(=O)O)C(=O)N[C@@H](CCCCN)C(=O)N[C@@H](CCC(N)=O)C(=O)N[C@@H](C)C(=O)N[C@@H](CCC(N)=O)C(=O)N[C@@H](C)C(=O)N[C@@H](CCC(=O)O)C(=O)N[C@@H](Cc1ccccc1)C(=O)N[C@H](C(=O)N[C@@H](CCCCN)C(=O)N[C@@H](Cc1c[nH]c2ccccc12)C(=O)N[C@@H](CC(C)C)C(=O)N[C@@H](CC(C)C)C(=O)N[C@@H](CCCCN)C(=O)NCC(=O)NCC(=O)N1CCC[C@H]1C(=O)N[C@@H](CO)C(=O)N[C@@H](CO)C(=O)NCC(=O)N[C@@H](C)C(=O)N1CCC[C@H]1C(=O)N1CCC[C@H]1C(=O)N1CCC[C@H]1C(=O)N[C@@H](CO)C(=O)N[C@@H](CCCCN)C(N)=O)C(C)C` [Example 13] (H-Y[Aib]EGT[αMeF]TSDY[Aib]I[αMeF]LDKQAQAEFVKWLLKGGPSSGAPPPSK-NH2), the EC50 (human GIPR) is reported as 0.0072 nM, the EC50 (human GLP-1R) is reported as 0.011 nM and the EC50 (human glucagon R) is reported as > 1000 nM.
With `CC[C@H](C)[C@H](NC(=O)C(C)(C)NC(=O)[C@H](Cc1ccc(O)cc1)NC(=O)[C@H](CC(=O)O)NC(=O)[C@H](CO)NC(=O)[C@@H](NC(=O)[C@](C)(Cc1ccccc1)NC(=O)[C@@H](NC(=O)CNC(=O)[C@H](CCC(=O)O)NC(=O)C(C)(C)NC(=O)[C@@H](N)Cc1ccc(O)cc1)[C@@H](C)O)[C@@H](C)O)C(=O)N[C@@H](CC1CCCCC1)C(=O)N[C@@H](CC(C)C)C(=O)N[C@@H](CC(=O)O)C(=O)N[C@@H](CCCCN)C(=O)N[C@@H](CCC(N)=O)C(=O)N[C@@H](C)C(=O)N[C@@H](CCC(N)=O)C(=O)N[C@@H](C)C(=O)N[C@@H](CCC(=O)O)C(=O)N[C@@H](Cc1ccccc1)C(=O)N[C@H](C(=O)N[C@@H](CCCCN)C(=O)N[C@@H](Cc1c[nH]c2ccccc12)C(=O)N[C@@H](CC(C)C)C(=O)N[C@@H](CC(C)C)C(=O)N[C@@H](CCCCN)C(=O)NCC(=O)NCC(=O)N1CCC[C@H]1C(=O)N[C@@H](CO)C(=O)N[C@@H](CO)C(=O)NCC(=O)N[C@@H](C)C(=O)N1CCC[C@H]1C(=O)N1CCC[C@H]1C(=O)N1CCC[C@H]1C(=O)N[C@@H](CO)C(=O)N[C@@H](CCCCN)C(N)=O)C(C)C` [Example 14] (H-Y[Aib]EGT[αMeF]TSDY[Aib]I[Cha]LDKQAQAEFVKWLLKGGPSSGAPPPSK-NH2) the EC50 (human GIPR) was 0.013 nM, the EC50 (human GLP-1R) was 0.021 nM and the EC50 (human glucagon R) was > 1000 nM.
With `CC(C)C[C@H](NC(=O)[C@H](CC(C)C)NC(=O)[C@H](Cc1c[nH]c2ccccc12)NC(=O)[C@H](CCCCN)NC(=O)[C@@H](NC(=O)[C@H](Cc1ccccc1)NC(=O)[C@H](CCC(=O)O)NC(=O)[C@H](C)NC(=O)[C@H](CCC(N)=O)NC(=O)[C@H](C)NC(=O)[C@H](CCC(N)=O)NC(=O)[C@H](CCCCN)NC(=O)[C@H](CC(=O)O)NC(=O)[C@H](CC(C)C)NC(=O)[C@](C)(Cc1ccccc1)NC(=O)[C@H](CCCCN)NC(=O)C(C)(C)NC(=O)[C@H](Cc1ccc(O)cc1)NC(=O)[C@H](CC(=O)O)NC(=O)[C@H](CO)NC(=O)[C@@H](NC(=O)[C@](C)(Cc1ccccc1)NC(=O)[C@@H](NC(=O)CNC(=O)[C@H](CCC(=O)O)NC(=O)C(C)(C)NC(=O)[C@@H](N)Cc1ccc(O)cc1)[C@@H](C)O)[C@@H](C)O)C(C)C)C(=O)N[C@@H](CCCCN)C(=O)NCC(=O)NCC(=O)N1CCC[C@H]1C(=O)N[C@@H](CO)C(=O)N[C@@H](CO)C(=O)NCC(=O)N[C@@H](C)C(=O)N1CCC[C@H]1C(=O)N1CCC[C@H]1C(=O)N1CCC[C@H]1C(=O)N[C@@H](CO)C(=O)N[C@@H](CCCCN)C(N)=O` [Example 15] (H-Y[Aib]EGT[αMeF]TSDY[Aib]K[αMeF]LDKQAQAEFVKWLLKGGPSSGAPPPSK-NH2) the EC50 (human GIPR) was 0.013 nM, the EC50 (human GLP-1R) was 0.015 nM and the EC50 (human glucagon R) was > 1000 nM.
